Reference: US20120115842A1 (priority 2004, published 2012)

Target: T1, human vasopressin V1b receptor (Homo sapiens, UniProt P47901)
T1 construct: expressed in transfected cells; host or cells: CHO-K1 (cell line hV1b-3H2_CHO), membranes
T1 sequence (P47901 1-424): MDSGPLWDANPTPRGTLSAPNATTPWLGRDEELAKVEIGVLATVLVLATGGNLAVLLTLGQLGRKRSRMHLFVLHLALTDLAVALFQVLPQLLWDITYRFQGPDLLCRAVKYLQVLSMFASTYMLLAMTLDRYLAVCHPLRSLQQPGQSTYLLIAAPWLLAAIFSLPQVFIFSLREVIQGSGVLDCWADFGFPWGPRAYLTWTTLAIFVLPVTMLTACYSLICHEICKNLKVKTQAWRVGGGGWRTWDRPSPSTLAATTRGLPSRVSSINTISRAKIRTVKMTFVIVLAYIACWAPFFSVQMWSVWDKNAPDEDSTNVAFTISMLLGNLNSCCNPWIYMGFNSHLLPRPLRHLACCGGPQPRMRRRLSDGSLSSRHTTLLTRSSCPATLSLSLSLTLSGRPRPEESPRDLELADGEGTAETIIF
Experiment: Vasopressin V1b receptor binding assay (3H-AVP displacement)
Conditions: for Ki: membranes from CHO-K1 cells with stably expressed human V1b receptors, 1.5 nM 3H-AVP, read-out: affinity constants (Ki) for the human vasopressin V1b receptor; for selectivity vis-a-vis V1b by comparison with V1a, V2 and/or OT: quotient of Ki values: Ki(V1a)/Ki(V1b), Ki(V2)/Ki(V1b) and/or Ki(OT)/Ki(V1b)
Protocol: The test substances were dissolved in a concentration of 10^−2 M in DMSO and further diluted to 5×10^−4 M to 5×10^−9 M in DMSO. These DMSO solutions were diluted 1:10 with assay buffer. The substance concentration was again diluted 1:5 in the assay mixture.
CHO-K1 cells with stably expressed human vasopressin V1b receptor (clone 3H2) were harvested and homogenized in 50 mM Tris-HCl and in the presence of protease inhibitors (Roche complete Mini #1836170) with a Polytron homogenizer at a medium setting for 2×10 seconds and subsequently centrifuged at 40 000×g for 1 h. The membrane pellet was again homogenized and centrifuged as described and then taken up in 50 mM Tris-HCl, pH 7.4, homogenized and stored in aliquots frozen in liquid nitrogen at −190° C.
The binding assay was carried out by a method based on that of Tahara et al. (Tahara A et al., Brit. J. Pharmacol. 125, 1463-1470 (1998)). The incubation buffer was: 50 mM Tris, 10 mM MgCl2, 0.1% BSA, pH 7.4.
In the assay mixture (250 μl), membranes (50 μg/ml protein in incubation buffer) from CHO-K1 cells with stably expressed human V1b receptors (cell line hV1b—3H2_CHO) were incubated with 1.5 nM ^3H-AVP (8-Arg-vasopressin, PerkinElmer #18479) in incubation buffer (50 mM Tris, 10 mM MgCl2, 0.1% BSA, pH 7.4) (total binding) or additionally with increasing concentrations of test substance (displacement experiment). The nonspecific binding was determined with 1 uM AVP (Bachem # H1780). All determinations were carried out as triplicate determinations. After incubation (60 minutes at room temperature), the free radioligand was removed by vacuum filtration (Skatron cell harvester 7000) through Wathman G F/B glass fiber filter mats, and the filters were transferred into scintillation vials. The liquid scintillation measurement took place in a Tricarb model 2000 or 2200CA instrument (Packard). Conversion of the measured cpm into dpm was carried out with the aid of a standard quench series.
The binding parameters were calculated by nonlinear regression in SAS. The algorithms of the program operate in analogy to the LIGAND analysis program (Munson P J and Rodbard D, Analytical Biochem. 107, 220-239 (1980)). The Kd of ^3H-AVP for the recombinant […] receptors is 0.4 nM and was used to determine the Ki value.

Compound	Ki [nM]	selectivity vis-a-vis V1b by comparison with V1a, V2 and/or OT
COc1ccc(S(=O)(=O)N2C(=O)C(c3ccccc3OC)(N3C[C@H](O)C[C@H]3C(=O)N(C)C)c3cc(C#N)ccc32)cc1 (stereo partly drawn) [Example 19, (−)-(2S,4R)-1-[5-Cyano-1-(4-methoxybenzenesulfonyl)-3-(2-methoxyphenyl)-2-oxo-2,3-dihydro-1H-indol-3-yl]-4-hydroxypyrrolidine-2-dimethylcarboxamide]	< 100	improved selectivity
COc1ccc(S(=O)(=O)N2C(=O)C(c3ccccc3OC)(N(C)[C@@H](C)C(=O)N(C)C)c3cc(C#N)ccc32)cc1 (mixture of isomers) [Example 15]	< 100	improved selectivity
COc1ccc(S(=O)(=O)N2C(=O)C(c3ccccc3OC)(N3CC(O)CC3C(=O)N(C)C)c3cc(C#N)ccc32)c(OC)c1 (single isomer, unassigned) [Example 1]	< 100	improved selectivity
COc1ccc(S(=O)(=O)N2C(=O)C(c3ccccc3OC)(N3CC(O)CC3C(=O)N(C)C)c3cc(C#N)ccc32)c(OC)c1 (single isomer, unassigned; (+)) [Example 16]		improved selectivity
COc1ccc(S(=O)(=O)N2C(=O)C(c3ccccc3OC)(N3CCC[C@H]3C(=O)N(C)C)c3cc(C#N)ccc32)cc1 (single isomer, unassigned; (+)) [Example 17b]	< 100	improved selectivity
